How the values were obtained:
reactive oxygen species = experiment: Measurement of reactive oxygen species generation (DCFH-DA fluorescence) in bronchoalveolar lavage fluid; type: in vivo, Balb/c mice; settings: for Reactive oxygen species generation, DCF fluorescence: NC = 100%, OVA group 192.89 ± 27.36; for reduction of reactive oxygen species generation compared with the asthma induced group: vs asthma induced group
Experimental: (§1) To investigate the effect of the Wogonin of the present invention on asthma, 6-week old female Balb/c mice in the weight of about 20 g were used as test animals. After spending one week for adaptation, basic physical examination was performed to select normal ones.
(§2) The test animal was sensitized with 200 μl of phosphate buffer (pH 7.4) containing 2 mg of aluminum hydroxide (A8222, Sigma, St. Louis, Mo.) and 20 μg of ovalbumin (A5503, Sigma, St. Louis, Mo.) by intraperitoneal injection at 2 weeks interval. 1% ovalbumin was inhaled in the mouse for 30 minutes by using an ultrasonic nebulizer from the 28th day to the 30th day after the first intraperitoneal injection of ovalbumin (OVA).
(§3) 24 hours after the final antigen treatment, airway hypersensitivity was measured. 48 hours later, a lethal dose of pentobarbital (Entobar, Hanlim Pharm. Co. Ltd., Seoul, Korea) was administered to the mouse. Body weight was measured and tracheostomy was performed. Bronchoalveolar lavage was performed with 1.2 ml of saline, followed by sampling. The normal control group (NC) was administered with ovalbumin but not inhaled, the asthma induced group (OVA) was administered with ovalbumin and inhaled to induce bronchial asthma, the comparative group 1 (DEXA) was orally administered with dexamethasone (3 mg/kg, PO: D4902, Sigma, St. Louis, Mo.) one hour before inhaling ovalbumin, the comparative group 2 (Monte) was orally administered with montelukast (30 mg/kg, PO) one hour before inhaling ovalbumin, and the experimental group (Wogonin) was orally administered with the Wogonin of Example 1 (30 mg/kg, PO) one hour before inhaling ovalbumin. Each group was composed of 5 white mice.
The increase of oxidative stress results in the decrease of reaction to steroids. To investigate the effect of the Wogonin of the present invention on asthma, the present inventors measured the generation of reactive oxygen species which is apparent in asthma like in other inflammatory diseases.
A portion of bronchoalveolar lavage fluid of each group was washed with PBS, to which 10 μM of 2,7-Dichlorofluorescein diacetate (DCFH-DA, 35845, Sigma, St. Louis, Mo.), one of the fluorescent reagents, was added. The mixture stood at room temperature for 10 minutes in the darkness, and then measured fluorescence with a spectrofluorometer (Ex=480 nm Em=522 nm).

IL-4 = experiment: Analysis of cytokine mRNA (RT-PCR), IL-4; type: in vivo, Balb/c mice; settings: for Relative Densitometric Value, RDV, IL-4: NC = 100%, OVA group 159.91 ± 14.87
Experimental: as §1, §2, §3
(§4) To investigate the effect of the Wogonin of the present invention on asthma, asthma related cytokine mRNA was measured.
(§5) RNA was isolated from the lung by using trizol (Invitrogen) in order to measure the expressions of Th2 cytokines such as IL-4, IL-6, and IL-13 in the supernatant of bronchoalveolar lavage fluid taken from each group, followed by reverse transcriptase polymerase chain reaction (quantitative RT-PCR, Promega, Wis.). When the lowest expression was indicated as 1, relative densitometric value (RDV) was produced by that to evaluate the expression inhibition effect.

[1] = Body weight of ovalbumin-induced asthma mice; type: in vivo, Balb/c mice; settings: OVA asthma induced mice; Wogonin 30 mg/kg PO, dexamethasone 3 mg/kg PO, montelukast 30 mg/kg PO; asthma induced group 19.72±0.53, normal control 21.60±0.25
Experimental: as §1, §2, §3

[2] = test system: infiltration of inflammatory cells around bronchiolus and blood vessels; experiment: Histopathological test of the lung (H&E, inflammatory index); type: in vivo, Balb/c mice; settings: index scale 0-4; for Inflammatory Index around bronchiolus: OVA group 3.60 ± 0.22; for Inflammatory Index around blood vessels: OVA group 3.80 ± 0.18
Experimental: as §1, §2, §3
The infiltration of inflammatory cells including eosinophils, neutrophils, and macrophages is observed in the bronchus sensitized with an antigen. To investigate the effect of the Wogonin of the present invention on asthma, the inventors performed histopathological test with the lung without bronchoalveolar lavage.
The lung extracted without bronchoalveolar lavage from each group was fixed with formalin and embedded in paraffin. Then, 4 μm thick permanent tissue sections were prepared, followed by H&E staining. Upon completion of H&E staining, inflammatory index was measured from 5 random regions of each section, and then mean value was calculated.

IgE = experiment: Measurement of IgE in serum and bronchoalveolar lavage fluid by enzyme immunoassay; type: in vivo, Balb/c mice; settings: mean±S.E.; for Total IgE Conc. in bronchoalveolar lavage fluid: OVA group 19.02 ± 2.43; for Total IgE Conc. in Serum: OVA group 23139.51 ± 484.45
Experimental: as §1, §2, §3
To investigate the effect of the Wogonin of the present invention on asthma, the inventors measured IgE concentration in serum and bronchoalveolar lavage fluid which is related to the severity of asthma by enzyme immunoassay.
Serum and bronchoalveolar lavage fluid taken from each group were loaded in […] plate on which 0.1M NaHCO3 buffer (pH 8.3) containing 20 μg/ml of ovalbumin (OVA) was coated at 4° C. for overnight. Non-specific reaction was blocked by PBS containing 1% bovine serum albumin. Serum sample was diluted at the ratio of 1:400, followed by reaction at room temperature for 2 hours.
After washing the plate well, the sample was reacted with anti-mouse IgE monoclonal antibody diluted at the ratio of 1:300 for 2 hours. HRP-conjugated goat anti-rat IgG polyclonal A was diluted at the ratio of 1:4000, which was added thereto for further reaction at room temperature for 1 hour, followed by washing.
For color development, 3.3′5.5′-tetramethylbenzidine substrate was added, followed by measuring OD650.

IL-6 = experiment: Analysis of cytokine mRNA (RT-PCR), IL-6; type: in vivo, Balb/c mice; settings: for Relative Densitometric Value, RDV, IL-6: NC = 100%, OVA group 128.20 ± 6.51
Experimental: as §1, §2, §3, §4, §5

[3] = test system: inflammatory cells (eosinophils and other inflammatory cells) in bronchoalveolar lavage fluid; experiment: Analysis of inflammatory cells in bronchoalveolar lavage fluid; type: in vivo, Balb/c mice; settings: for Cell Number, other cells: OVA group 452.55 ± 93.48
Experimental: as §1, §2, §3
To investigate the effect of the Wogonin of the present invention on asthma, the present inventors measured the increase or decrease of inflammatory cell number which is believed to be involved in asthma.
As soon as bronchoalveolar lavage fluid was recovered from each group, it was stained with Trypan blue. Then, the number of cells, except dead cells, was counted by hemocytometer. The sample was smeared with Cytospin II, followed by Diff-Quick staining (Sysmex, Switzerland) to calculate the numbers of eosinophils and other inflammatory cells.

[4] = test system: airway hypersensitivity in ovalbumin-sensitized Balb/c mice; experiment: Measurement of airway hypersensitivity (Penh, methacholine inhalation, one chamber plethysmography); type: in vivo; settings: for Penh value: mean±S.E.
Experimental: as §1, §2, §3
The effect of the Wogonin of the present invention on asthma related airway hypersensitivity was evaluated by measuring enhanced pause (Penh) which presents the grade of airway obstruction calculated by measuring airway resistance using one chamber plethysmorgraphy (All Medicus, Seoul). For the measurement of Penh, base value was measured under normal breathing condition and then PBS was inhaled by using an ultrasonic nebulizer for 3 minutes, followed by measuring for 3 minutes. Then, methacholine (A2251, Sigma, St. Louis, Mo.), the […], which is generally used to diagnose bronchial asthma, was inhaled to the animal with raising the concentration gradually (12, 25, and 50 mg/ml), followed by measuring Penh. The ratio of Penh increased over the concentrations of methacholine inhaled was presented as % and baseline Penh (saline challenge) was presented as 100%.

[5] = test system: airway hypersensitivity in ovalbumin-sensitized Balb/c mice; experiment: as above; type: in vivo; settings: methacholine 12.5 mg/ml; OVA group 2.2917 ± 0.3070; mean±S.E.
IL-13 = experiment: Analysis of cytokine mRNA (RT-PCR), IL-13; type: in vivo, Balb/c mice; settings: for Relative Densitometric Value, RDV, IL-13: NC = 100%, OVA group 187.35 ± 7.49
Experimental: as §1, §2, §3, §4, §5

[6] = methacholine 0 mg/ml, OVA group 0.6299 ± 0.0617
[7] = methacholine 25 mg/ml, OVA group 6.8642 ± 0.8313
[8] = methacholine 50 mg/ml, OVA group 9.1854 ± 1.6230

SMILES | Reactive oxygen species generation, DCF fluorescence (reactive oxygen species) [%] | reduction of reactive oxygen species generation compared with the asthma induced group (reactive oxygen species) [%] | Relative Densitometric Value, RDV, IL-4 (IL-4) [%] | average body weight [1] [g] | Inflammatory Index around bronchiolus [2] | Inflammatory Index around blood vessels [2] | Total IgE Conc. in bronchoalveolar lavage fluid (IgE) [ng/mL] | Total IgE Conc. in Serum (IgE) [ng/mL] | Relative Densitometric Value, RDV, IL-6 (IL-6) [%] | Cell Number, eosinophils ([3]; OVA group 71.75 ± 4.63) | Cell Number, other cells [3] | Cell Number, total cells ([3]; OVA group 524.30 ± 43.22) | Penh value [4, 6] | Penh value [4, 7] | Penh value [4, 8] | Penh value [5] | Relative Densitometric Value, RDV, IL-13 (IL-13) [%] | also measured
C[C@@H]1C[C@H]2[C@@H]3CCC4=CC(=O)C=C[C@]4(C)[C@@]3(F)[C@@H](O)C[C@]2(C)[C@@]1(O)C(=O)CO [DEXA, dexamethasone] | 116.55 ± 9.28 | 39.58 | 139.60 ± 13.34 | 21.04 ± 0.35 | 1.75±0.19 | 1.50 ± 0.22 | 10.15 ± 1.38 | 15991.36 ± 1194.92 | 121.37 ± 6.78 | 8.24 ± 1.31 ×10^3 cell/mouse | 81.00 ± 10.40 ×10^3 cell/mouse | 89.24 ± 6.98 ×10^3 cell/mouse | 0.6486 ± 0.1526 | 1.9963 ± 0.1577 | 2.7864 ± 0.4293 | 1.6750 ± 0.0820 | 176.55 ± 16.13 | Inflammatory Index around blood vessels ([2]; listed as comparative control group 1): 1.50±0.22; Cell Number, eosinophils ([3]; OVA group 71.75 ± 4.63, listed as dexamethasone): 8.24±1.31 ×10^3 cell/mouse; Cell Number, total cells ([3]; OVA group 524.30 ± 43.22, listed as dexamethasone): 89.24±6.98 ×10^3 cell/mouse
CC(C)(O)c1ccccc1CC[C@@H](SCC1(CC(=O)O)CC1)c1cccc(/C=C/c2ccc3ccc(Cl)cc3n2)c1 [Monte, montelukast] | 104.48 ± 9.80 | 45.84 | 138.86 ± 19.52 | 21.08 ± 0.36 | 2.25±0.22 | 2.50 ± 0.25 | 10.15 ± 1.58 | 17176.54 ± 2542.98 | 112.39 ± 7.16 | 27.88 ± 2.80 ×10^3 cell/mouse | 130.12 ± 9.22 ×10^3 cell/mouse | 167.68 ± 8.80 ×10^3 cell/mouse | 0.4525 ± 0.0313 | 2.1006 ± 0.4758 | 2.3576 ± 0.1741 | 1.5249 ± 0.2432 | 157.67 ± 16.60 | Inflammatory Index around blood vessels ([2]; listed as comparative control group 2): 0.50±0.25; Cell Number, eosinophils ([3]; OVA group 71.75 ± 4.63, listed as montelukast): 27.88±2.80 ×10^3 cell/mouse; Cell Number, total cells ([3]; OVA group 524.30 ± 43.22, listed as montelukast): 167.68±8.80 ×10^3 cell/mouse
COc1c(O)cc(O)c2c(=O)cc(-c3ccccc3)oc12 [Wogonin] | 60.91 ± 4.14 | 68.42 | 118.11 ± 29.80 | 21.92 ± 0.43 | 1.00±0.28 | 1.40±0.22 | 12.10 ± 1.87 | 19418.52 ± 1332.101 | 106.87 ± 10.47 | 32.24±8.84 ×10^3 cell/mouse | 140.28 ± 26.24 ×10^3 cell/mouse | 172.52±29.29 ×10^3 cell/mouse | 0.4261 ± 0.0069 | 2.0166 ± 0.2248 | 2.6055 ± 0.2280 | 1.7059 ± 0.3028 | 143.68 ± 14.08 | suppression of IL-4 expression compared with the asthma induced group (IL-4; lung, vs asthma induced group): 26.14%; suppression of IL-6 expression compared with the asthma induced group (IL-6; lung, vs asthma induced group): 16.64%; Penh value over the increase of methacholine concentration ([4]; range over methacholine concentrations): 1.7059-2.6055; suppression of IL-13 expression compared with the asthma induced group (IL-13; lung, vs asthma induced group): 23.30%

— patent publication US20140228427A1, “PHARMACEUTICAL COMPOSITION CONTAINING WOGONIN AS AN ACTIVE INGREDIENT FOR PREVENTING OR TREATING ASTHMA” (KOREA RESEARCH INSTITUTE OF BIOSCIENCE AND BIOTECHNOLOGY, priority 2011, published 2014)
